From patent publication US20040063721A1, “Agonism of the 5HT2A receptor for treatment of thermoregulatory dysfunction” (Wyeth, priority 2002, published 2004)
Entries after “also recorded” stand apart in the source; their conditions may differ.

Tested on: morphine-dependent rat model of vasomotor instability
Experiment: Morphine-dependent naloxone-induced flush model (tail skin temperature)
Format: in vivo
Settings: for effect on basal tail skin temperature prior to administration of naloxone: ovariectomized morphine-dependent rats, MDL-100907 0.3, 1 mg/kg, DOI 1 mg/kg, FIG. 1
[1] = Example 2, sc 20 min prior to naloxone, 5HT2c agonist 0.1, 3.0 mg/kg, 5HT2c antagonist 0.1, 1.0 mg/kg, FIG. 2
[2] = Example 1, sc 20 min prior to naloxone
[3] = Example 3, fluoxetine 10 mg/kg sc 1 h prior and/or WAY-100635 1 mg/kg sc 20 min prior to naloxone, FIG. 3

**Q.** `Cc1cc2c(cc1Cl)N(C(=O)Nc1ccc(Oc3cccnc3C)nc1)CC2` [6-Chloro-5-methyl-1-[[2-[(2-methyl3-pyridyl)oxy]-5-pyridyl]carbamoyl]indoline] was tested. Which “abatement of naloxone-induced flush (changes in TST, Δ°C, mean, over time)” value [1] did it give?
**A.** Its value is “did not significantly abate naloxone-induced flush”.

**Q.** What does the source list for `COc1cccc([C@H](O)C2CCN(CCc3ccc(F)cc3)CC2)c1OC` [MDL-100907]?
**A.** effect on basal tail skin temperature prior to administration of naloxone [2]: significantly induced an increase in tail skin temperature; effect on the combination drug abatement of the naloxone-induced flush at maximal flush (Example 5, MDL-100907 0.01 or 0.1 mg/kg 55 min prior to naloxone, then fluoxetine 10 mg/kg + WAY-100635 0.01 mg/kg, 15 min post-naloxone, FIG. 5A): dose-dependently reversed; effect on fluoxetine (10 mg/kg) action on naloxone-induced flush at maximal flush (Example 5, MDL-100907 0.01 or 0.1 mg/kg 55 min prior to naloxone, then fluoxetine 10 mg/kg, 15 min post-naloxone, FIG. 5B): potentiated; effect on fluoxetine (30 mg/kg) abatement of naloxone-induced hot flush (Example 5, MDL-100907 0.01 or 0.1 mg/kg prior to fluoxetine 30 mg/kg, FIG. 5C): potentiated the abatement effect

**Q.** With `c1cc2c3c(c1)[C@H]1CCC[C@H]1N3CCNC2` [(7bR, 10aR)-1,2,3,4,8,9,10,10a-octahydro-7bH-cyclopenta[b][1,4]diazepino[6,7,1-hi]indole] as the compound, how does the “abatement of naloxone-induced flush (changes in TST, Δ°C, mean, over time)” value [1] read?
**A.** The value was “did not significantly abate naloxone-induced flush”.

**Q.** What does the source list for `COc1cc(CC(C)N)c(OC)cc1I.Cl` (stereo not shown) [DOI, 1-(2,5-dimethoxy-4-iodophenyl)-2-aminopropane hydrochloride]?
**A.** abatement of naloxone-induced flush (change in TST) (Example 1, DOI 1 mg/kg sc 20 min prior to naloxone, FIG. 1B, hydrochloride): preventing a naloxone-induced increase in tail-skin temperature; also recorded: significantly abated the naloxone-induced flush; effect on basal tail skin temperature prior to administration of naloxone [2]: without affecting basal tail skin temperature

**Q.** How did the “abatement of naloxone-induced flush (changes in TST, Δ°C, mean, over time)” value [3] turn out when `COc1ccccc1N1CCN(CCN(C(=O)C2CCCCC2)c2ccccn2)CC1` [WAY-100635, N-[2-[4-(2-Methoxyphenyl)-1-piperazinyl]ethyl]-N-2-pyridinylcyclohexanecarboxamide] was run?
**A.** Its value is “did not significantly abate naloxone-induced flush”.

**Q.** And the ED50 (Rattus norvegicus, 0.25 h, Example 4, WAY-100635 0.01, 0.1 or 1.0 mg/kg sc combined with fluoxetine 10 mg/kg, 15 min post-naloxone, FIG. 4B, read-out: ED50 value, abatement of naloxone-induced flush at maximal flush)?
**A.** The ED50 was 0.01 ± 0.009 mg/kg.

**Q.** How did the “abatement of naloxone-induced flush (changes in TST, Δ°C, mean, over time)” value [3] turn out when `CNCCC(Oc1ccc(C(F)(F)F)cc1)c1ccccc1` (stereo not shown) [fluoxetine] was run?
**A.** The value was “did not significantly abate naloxone-induced flush”.

**Q.** And the “abatement of naloxone-induced flush by fluoxetine alone” value (Example 5, fluoxetine 10 mg/kg sc)?
**A.** The value was “ineffective”.

**Q.** And the “abatement of naloxone-induced hot flush by fluoxetine alone” value (Example 5, fluoxetine 30 mg/kg sc)?
**A.** Its value is “abates a naloxone-induced hot flush”.
